From ChEMBL document CHEMBL1150827, “Pseudodestruxins A and B: new cyclic depsipeptides from the coprophilous fungus Nigrosabulum globosum” (2001)
Activity calls are given as the source filed them. The calls are words filed in the database; no cut-off is given here. Non-standard residues stand in square brackets, D forms with d. Residues, ends and D or L forms follow the SMILES beside them. NMeI = CC[C@H](C)[C@H](NC)C(=O)O; Hica(2S) = CC(C)C[C@H](O)C(=O)O; NMeL = CN[C@@H](CC(C)C)C(=O)O; NMeV = CN[C@H](C(=O)O)C(C)C; βAla = NCCC(=O)O

Tests used:
Sordaria fimicola [1] = assay: Antifungal activity against Sordaria fimicola NRRL 6459 at 200 ug/disk by standard disk assay; format: functional, organism-based
Helicoverpa zea = assay: Antiinsectan activity against Helicoverpa zea larvae at 100 ppm dietary level by dietary assay; format: functional, organism-based
Ascobolus [2] = assay: Antifungal activity against Ascobolus furfuraceus NRRL 6460 at 200 ug/disk by standard disk assay; format: functional, organism-based
Bacillus subtilis = assay: Antibacterial activity against Bacillus subtilis ATCC 6051 at 200 ug/disk by standard disk assay; format: functional; settings: read-out: IZ
Sordaria fimicola [3] = assay: Antifungal activity against Sordaria fimicola NRRL 6459 assessed as inhibition of radial growth at 200 ug/disk by standard disk assay; format: functional
Candida albicans = assay: Antifungal activity against Candida albicans ATCC 90029 at 200 ug/disk by standard disk assay; format: functional; settings: read-out: IZ
Ascobolus [4] = assay: Antifungal activity against Ascobolus furfuraceus NRRL 6460 assessed as inhibition of radial growth at 200 ug/disk by standard disk assay; format: functional
Staphylococcus aureus = assay: Antibacterial activity against Staphylococcus aureus ATCC 29213 at 200 ug/disk by standard disk assay; format: functional; settings: read-out: IZ

Row | SMILES | inhibition zone (IZ) (Sordaria fimicola [1]) | Activity (Helicoverpa zea) | inhibition zone (IZ) (Ascobolus [2]) | zone of inhibition at 200 µg/disc (Bacillus subtilis) | inhibition at 200 µg/disc (Sordaria fimicola [3]) | zone of inhibition at 200 µg/disc (Candida albicans) | inhibition at 200 µg/disc (Ascobolus [4]) | zone of inhibition at 200 µg/disc (Staphylococcus aureus)
1 | CC[C@H](C)[C@H]1C(=O)N(C)[C@@H](CC(C)C)C(=O)NCCC(=O)O[C@@H](CC(C)C)C(=O)N2CCC[C@H]2C(=O)N[C@@H](Cc2ccccc2)C(=O)N1C [PSEUDODESTRUXIN A] (cyclo(F[NMeI][NMeL][βAla][Hica(2S)]P)) | inactive | inactive | inactive | 8 mm |  |  |  | 
2 | CC(C)C[C@@H]1OC(=O)CCNC(=O)[C@H](CC(C)C)N(C)C(=O)[C@H](C(C)C)N(C)C(=O)[C@H](Cc2ccccc2)NC(=O)[C@@H]2CCCN2C1=O [PSEUDODESTRUXIN B] (cyclo(F[NMeV][NMeL][βAla][Hica(2S)]P)) | inactive |  | inactive | 8 mm |  |  |  | 
3 | CC(/C=C/[C@@]1(C)[C@H](C)CCC(=O)[C@@H]1C)=C\Cc1c(O)c(Cl)c(C)c(C=O)c1O [ASCOCHLORIN] |  |  |  | 12 mm | 62% | 24 mm | 33% | 11 mm
